One assay addresses T1, human DP1 receptor (Homo sapiens, UniProt Q13258).
T1 construct: tissue Biological Specialty Corporation; host or cells: human platelets, membranes
T1 sequence (Q13258 1-359): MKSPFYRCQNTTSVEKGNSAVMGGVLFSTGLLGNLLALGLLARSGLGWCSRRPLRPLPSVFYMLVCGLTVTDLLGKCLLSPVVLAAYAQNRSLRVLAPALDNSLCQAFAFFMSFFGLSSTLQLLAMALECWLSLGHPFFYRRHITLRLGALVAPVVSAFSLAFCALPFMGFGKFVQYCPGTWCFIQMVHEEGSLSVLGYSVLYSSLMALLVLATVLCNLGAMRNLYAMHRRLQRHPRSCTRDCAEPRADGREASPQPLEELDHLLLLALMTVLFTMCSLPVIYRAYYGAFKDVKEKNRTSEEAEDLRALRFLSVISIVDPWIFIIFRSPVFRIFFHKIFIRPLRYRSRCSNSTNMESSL
Kind of assay: DP1 radioligand binding assay using [3H]BWA868C. The conditions noted are these: hDP1 binding. The procedure, abridged:
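Human platelet membranes (20 μg protein/well) incubated 60 min at room temperature with 2 nM [3H]BWA868C in 50 mM Hepes, 10 mM MnCl2, 1 mM EDTA, ±0.2% human serum albumin, pH 7.4. Bound label measured after filtration; nonspecific binding defined with 10 μM BW A868C. IC50 from titration curves.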

The target of assay [1] is T2, recombinant human CRTH2 receptor (Homo sapiens, UniProt Q9Y5Y4).
T2 construct: expressed in transfected cells
T2 sequence (Q9Y5Y4 1-395): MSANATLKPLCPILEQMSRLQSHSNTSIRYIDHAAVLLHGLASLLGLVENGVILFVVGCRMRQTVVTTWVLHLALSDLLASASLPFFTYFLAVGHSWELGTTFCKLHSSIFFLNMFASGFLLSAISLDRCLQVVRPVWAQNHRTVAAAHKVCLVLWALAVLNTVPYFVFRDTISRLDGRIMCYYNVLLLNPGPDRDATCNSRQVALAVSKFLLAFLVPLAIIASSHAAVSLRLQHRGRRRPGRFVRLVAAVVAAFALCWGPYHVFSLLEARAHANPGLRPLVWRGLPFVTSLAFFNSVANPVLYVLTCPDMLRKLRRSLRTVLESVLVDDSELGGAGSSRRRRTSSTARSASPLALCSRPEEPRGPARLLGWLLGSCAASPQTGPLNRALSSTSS
Nature of the assay: GTPγS binding assay. The conditions noted are these: +HSA; read-out: hDP2 GTPγS μM (+HSA). It is filed as biochemical. The procedure, abridged: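 Membranes from CHO cells stably expressing recombinant receptor (~12.5 μg/well), incubated 60 min at 30° C with 0.05 nM [^35S]-GTPγS, 80 nM PGD2, 5 μM GDP in pH 7.4 Hepes buffer with 0.2% human serum albumin. Filter-bound radioactivity counted; specific binding = total minus binding without PGD2; IC50 from titration curves.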
In general terms: GTPγS is a poorly hydrolysed GTP analogue; its binding reports G protein activation.

The next assay deals with T3, human DP2 receptor (Homo sapiens, UniProt Q9Y5Y4).
T3 construct: expressed in transfected cells
T3 sequence (Q9Y5Y4 1-395): T2 sequence (Q9Y5Y4 1-395)
Nature of the assay: DP2/CRTH2 radioligand binding assay using [3H]PGD2. The conditions noted are these: hDP2 (CRTH2) binding assay. In outline:
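HEK293 membranes with stable recombinant human DP2, incubated with 1 nM [3H]PGD2 and compound 60 min at room temperature in pH 7.4 HEPES/MnCl2/EDTA buffer, with or without 0.2% human serum albumin.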

Take `O=C(O)Cc1cccc(Oc2ccc(C(F)(F)F)cc2CN2C(=O)O[C@@H]3Cc4ccccc4[C@@H]32)c1` [Compound 2-3, {3-[2-((3aS,8aR)-2-Oxo-8,8a-dihydro-3aH-indeno[1,2-d]oxazol-3-ylmethyl)-4-trifluoromethyl-phenoxy]-phenyl}-acetic acid]: the IC50 at human DP1 receptor is over 1 µM; in assay [1] it was 0.3 to 1 µM; on human DP2 receptor, under 0.3 µM.

Take `COc1ccc(CC(=O)O)cc1Oc1ccc(Br)cc1CN1C(=O)O[C@H]2Cc3ccccc3[C@H]21` [Compound 2-4, {3-[4-Bromo-2-((3aR,8aS)-2-oxo-8,8a-dihydro-3aH-indeno[1,2-d]oxazol-3-ylmethyl)-phenoxy]-4-methoxy-phenyl}-acetic acid]: the IC50 on human DP1 receptor was over 1 µM; in assay [1], under 0.3 µM; at human DP2 receptor, under 0.3 µM.

Regarding `COc1ccc(CC(=O)O)cc1Oc1ccc(Br)cc1CN1C(=O)O[C@@H]2Cc3ccccc3[C@@H]21` [Compound 2-5, {3-[4-Bromo-2-((3aS,8aR)-2-oxo-8,8a-dihydro-3aH-indeno[1,2-d]oxazol-3-ylmethyl)-phenoxy]-4-methoxy-phenyl}-acetic acid], the IC50 at human DP1 receptor was over 1 µM; in assay [1], under 0.3 µM; at human DP2 receptor, under 0.3 µM.

For `O=C(O)Cc1cccc(Oc2ccc(C(F)(F)F)cc2CN2C(=O)OC3c4ccccc4CC32)c1` (stereo not drawn) [Compound 2-7, {3-[2-(2-Oxo-4,8b-dihydro-3aH-indeno[2,1-d]oxazol-3-ylmethyl)-4-trifluoromethyl-phenoxy]-phenyl}-acetic acid], the IC50 on human DP1 receptor is over 1 µM; in assay [1], under 0.3 µM; on human DP2 receptor it was under 0.3 µM.

On to `O=C(O)Cc1cccc(Oc2ccc(Br)cc2CN2CC(c3ccc(Cl)cc3)CC2=O)c1` (stereo not drawn) [Compound 3-2, (3-{4-Bromo-2-[4-(4-chloro-phenyl)-2-oxo-pyrrolidin-1-ylmethyl]-phenoxy}-phenyl)-acetic acid], for which the IC50 on human DP1 receptor is 0.3 to 1 µM; in assay [1] it was over 1 µM; at human DP2 receptor it was under 0.3 µM.

As to `O=C(O)CCn1c2c(c3ccccc31)C[C@H](NS(=O)(=O)c1ccc(F)cc1)CC2` [Ramatroban, reference compound], the IC50 was over 1 µM on human DP1 receptor, 0.3 to 1 µM in assay [1] and 0.3 to 1 µM on human DP2 receptor.
